Measurements taken from ChEMBL document CHEMBL4393702, “Structure-activity relationship and synthetic methodologies of α-santonin derivatives with diverse bioactivities: A mini-review” (Eur J Med Chem, 2019).
≈ marks a conversion by molar mass, not a printed value.

How the values were obtained:
[1] = biological target: T1, Peroxisome proliferator-activated receptor gamma (Homo sapiens, UniProt P37231); experiment: Agonist activity at GAL4- fused PPARgamma LBD (unknown origin) expressed in African green monkey COS7 cells by luciferase reporter gene assay; type: cell-based
T1 sequence (P37231 whole entry): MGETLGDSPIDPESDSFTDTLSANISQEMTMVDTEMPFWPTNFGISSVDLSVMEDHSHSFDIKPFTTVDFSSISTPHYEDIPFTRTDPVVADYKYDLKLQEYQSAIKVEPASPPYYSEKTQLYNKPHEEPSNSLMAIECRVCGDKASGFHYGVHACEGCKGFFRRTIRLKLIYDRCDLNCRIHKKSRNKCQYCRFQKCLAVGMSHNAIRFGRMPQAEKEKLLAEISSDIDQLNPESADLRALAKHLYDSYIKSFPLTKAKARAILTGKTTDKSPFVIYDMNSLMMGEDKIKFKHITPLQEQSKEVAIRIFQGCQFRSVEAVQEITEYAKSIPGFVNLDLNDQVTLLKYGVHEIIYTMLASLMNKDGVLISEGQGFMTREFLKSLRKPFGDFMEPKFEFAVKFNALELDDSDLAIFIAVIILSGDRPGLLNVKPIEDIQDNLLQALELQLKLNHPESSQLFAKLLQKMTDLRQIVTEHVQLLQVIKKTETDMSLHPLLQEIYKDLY

[2] = Growth inhibition of human Caov cells after 48 hrs by MTT assay; type: functional
Melanoma cell line = experiment: Growth inhibition of human Melanoma cells after 48 hrs by MTT assay; type: functional
P388 = experiment: Cytotoxicity against mouse P388 cells assessed as reduction in cell viability incubated for 72 hrs by MTT assay; type: functional, cell-based; conditions: P388, 72 h
HT-29 = experiment: Cytotoxicity against human HT-29 cells assessed as reduction in cell viability incubated for 72 hrs by MTT assay; type: functional, cell-based; conditions: HT-29, 72 h
HONE1 cell line = experiment: Cytotoxicity against human HONE1 cells assessed as reduction in cell viability incubated for 72 hrs by MTT assay; type: functional, cell-based; conditions: HONE1, 72 h
[3] = biological target: T2, Polyunsaturated fatty acid 5-lipoxygenase (Homo sapiens, UniProt P09917); experiment: Inhibition of 5-LOX (unknown origin)
T2 sequence (P09917 whole entry): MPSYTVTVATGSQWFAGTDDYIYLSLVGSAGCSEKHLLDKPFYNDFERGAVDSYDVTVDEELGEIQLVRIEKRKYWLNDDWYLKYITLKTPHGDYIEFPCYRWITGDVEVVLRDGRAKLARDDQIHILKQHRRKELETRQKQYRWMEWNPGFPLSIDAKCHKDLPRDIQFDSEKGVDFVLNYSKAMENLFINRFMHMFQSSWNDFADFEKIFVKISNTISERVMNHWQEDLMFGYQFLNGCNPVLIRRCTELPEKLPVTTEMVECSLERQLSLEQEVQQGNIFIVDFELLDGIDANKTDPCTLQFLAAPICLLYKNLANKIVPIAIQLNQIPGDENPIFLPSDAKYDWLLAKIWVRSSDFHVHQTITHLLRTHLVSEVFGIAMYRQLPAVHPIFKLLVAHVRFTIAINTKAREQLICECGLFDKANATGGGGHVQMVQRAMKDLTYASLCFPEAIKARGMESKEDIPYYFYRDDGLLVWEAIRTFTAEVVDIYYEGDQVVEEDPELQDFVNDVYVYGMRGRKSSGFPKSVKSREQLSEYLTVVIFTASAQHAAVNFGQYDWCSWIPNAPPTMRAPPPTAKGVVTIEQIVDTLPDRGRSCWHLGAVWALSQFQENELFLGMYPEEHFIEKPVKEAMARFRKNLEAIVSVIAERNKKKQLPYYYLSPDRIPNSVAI

[4] = biological target: T2, Polyunsaturated fatty acid 5-lipoxygenase; experiment: Inhibition of 5-LOX in polymorphonuclear leucocytes (unknown origin); type: cell-based
[5] = Cytotoxicity against human […] cells assessed as reduction in cell viability after 72 hrs by Alamar Blue assay; type: functional, cell-based
[6] = test system: Trypanosoma brucei brucei; experiment: Antitrypanosomal activity against Trypanosoma brucei brucei GUTat 3.1 after 72 hrs by Alamar Blue assay; type: functional, organism-based; conditions: GUTat 3.1, 72 h
HCT-116 = experiment: Anticancer activity against human HCT116 cells assessed as reduction in cell viability incubated for 1 hr by SRB assay; type: functional, cell-based; conditions: HCT-116, 1 h
[7] = Anticancer activity against human IMR13 cells assessed as reduction in cell viability incubated for 1 hr by SRB assay; type: functional, cell-based
THP-1 = experiment: Anticancer activity against human THP1 cells assessed as reduction in cell viability incubated for 1 hr by SRB assay; type: functional, cell-based; conditions: THP-1, 1 h
A549 = experiment: Anticancer activity against human A549 cells assessed as reduction in cell viability incubated for 1 hr by SRB assay; type: functional, cell-based; conditions: A549, 1 h

GI50 (Melanoma cell line) | IC50 [3] | IC50 [4] | SMILES | GI50 [2] | other results
 |  |  | CCCOc1cc(C)c2c(c1C)C[C@H]([C@H](C)C(=O)O)CC2 |  | EC50 [1]: 15000 nM
3000 nM |  |  | CC1=C2[C@H]3OC(=O)[C@@H](CN4CCCC(C)(C)C4)[C@@H]3CC[C@@]2(C)C=CC1=O | 2000 nM | 
3000 nM |  |  | COc1ccc(N2CCN(C[C@@H]3C(=O)O[C@@H]4C5=C(C)C(=O)C=C[C@]5(C)CC[C@@H]34)CC2)cc1 | 3000 nM | 
 |  |  | C[C@@H]1C(=O)O[C@H]2C3=CC(=O)C[C@@H](O)[C@]3(C)CC[C@@H]12 |  | IC50 (P388): 3100 to 6900 nM; IC50 (HT-29): 3100 to 6900 nM; IC50 (HONE1 cell line): 3100 to 6900 nM
4000 nM |  |  | CCCN(CCC)C[C@@H]1C(=O)O[C@@H]2C3=C(C)C(=O)C=C[C@]3(C)CC[C@@H]12 | 2000 nM | 
 | 1000 nM | 800 nM | CCCOc1cc(C)c2c(c1C)C[C@H]([C@@H](C)C(=O)Nc1nccs1)CC2 |  | 
 | 3000 nM | 8000 nM | CCCOc1cc(C)c2c(c1C)C[C@H]([C@@H](C)C(=O)NCc1cccs1)CC2 |  | 
2000 nM |  |  | CC1=C2[C@H]3OC(=O)[C@@H](CN4CCN(Cc5ccc6c(c5)OCO6)CC4)[C@@H]3CC[C@@]2(C)C=CC1=O | 4000 nM | 
3000 nM |  |  | CC1=C2[C@H]3OC(=O)[C@@H](CN4CCOCC4)[C@@H]3CC[C@@]2(C)C=CC1=O | 4000 nM | 
 | 800 nM | 1000 nM | CCCOc1cc(C)c2c(c1C)C[C@H]([C@@H](C)C(=O)Nc1ncc(C)s1)CC2 |  | 
 |  |  | C[C@@H]1C(=O)O[C@H]2[C@H]1CC[C@@]1(C)CCC(=O)[C@](C)(OO)[C@@H]21 |  | EC50 [5]: 64.2 µg/mL (≈ 227 µM); EC50 [6]: 0.4 µg/mL (≈ 1.42 µM)
 | 6000 nM | 900 nM | CCCOc1cc(C)c2c(c1C)C[C@H]([C@@H](C)C(=O)Nc1ccccn1)CC2 |  | 
 |  |  | CC1=C2C(=O)[C@H]([C@@H](C)C(=O)OCc3ccccc3)CC[C@@]2(C)C=CC1Cc1ccccc1 (stereo partly drawn) |  | IC50 (HCT-116): 600 nM; IC50 [7]: 230 nM; IC50 (THP-1): 510 nM; IC50 (A549): 300 nM
